In patent US20030194376A1, “Ultrasound contrast agents and methods of making and using them” (Bracco International B.V., priority 1990, published 2003):

Assay: Water solubility of the filling gas (Bunsen coefficient, Gas Encyclopaedia)
Format: physicochemical
Settings: gas solubility divided by square root of molecular weight
Excerpt: In the Tables, the water solubility factors have also been taken from the aforecited Gas Encyclopaedia from “L'Air Liquide”, Elsevier Publisher (1976).

SMILES	S gas {square root} Mw
FC(F)(F)Br [CBrF3]	.0004
FC(F)(F)F [CF4]	.0004
[Kr] [Kr, Krypton]	.006
